What was measured:
PfNMT = molecular target: T1, PfNMT (Plasmodium falciparum, UniProt Q9U419); test: NMT enzyme inhibition assay; format: biochemical; conditions: for LipE: LipE = pKi (PfNMT) - clog P
T1 sequence (Q9U419 1-410): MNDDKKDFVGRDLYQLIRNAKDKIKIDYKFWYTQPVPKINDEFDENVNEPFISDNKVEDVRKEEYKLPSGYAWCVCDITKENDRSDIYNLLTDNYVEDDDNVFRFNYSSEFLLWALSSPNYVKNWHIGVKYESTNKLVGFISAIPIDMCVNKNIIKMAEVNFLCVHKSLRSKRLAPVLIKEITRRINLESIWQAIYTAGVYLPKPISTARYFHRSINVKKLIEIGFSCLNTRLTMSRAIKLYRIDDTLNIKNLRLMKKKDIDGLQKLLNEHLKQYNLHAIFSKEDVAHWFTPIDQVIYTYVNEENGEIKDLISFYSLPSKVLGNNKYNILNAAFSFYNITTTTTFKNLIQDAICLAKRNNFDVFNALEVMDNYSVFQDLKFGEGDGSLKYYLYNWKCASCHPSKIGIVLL

HepG2 cell line = test: HepG2 toxicity assay; format: cell-based, human; conditions: 48 hours, MTS

| SMILES | LipE (PfNMT) | LD50 (HepG2 cell line) [µM] | also measured |
| --- | --- | --- | --- |
| c1ccc(Cc2noc(-c3cccnc3OC3CCNCC3)n2)cc1 [Compound 7] |  |  | fold improvement in enzyme affinity (PfNMT; PfNMT, 7 vs. 3): 10 fold |
| COc1cccc(Cc2noc(-c3ccccc3OC3CCNCC3)n2)c1 [Compound 18] | 3.32 |  |  |
| Cc1nn(C)c(C)c1Cc1noc(-c2cccnc2OC2CCNCC2)n1 [Compound 25] |  | >100 |  |
| Cc1nn(C)c(C)c1Cc1noc(-c2cccnc2OC2CCN(C(C)C)CC2)n1 [Compound 28] |  | >100 |  |
| c1cnc(OC2CCNCC2)c(-c2nc(Cc3cccc4ncccc34)no2)c1 [Compound 30] | 5.63 |  |  |
